In brackets after ≈: the same amount, converted by molar mass. Like-named read-outs stand apart in the source and are kept apart here.
Legend:
[1] = test system: M. tuberculosis transformed with luxABCDE; test: microbe, parasite or virus in culture; assay type: cell-based, Mycobacterium tuberculosis; conditions: for MBC / MIC90: Mycobacterium tuberculosis, 168 h
[2] = test system: non-replicating cultures of M. tuberculosis H37Rv transformed with lux ABCDE; test: microbe, parasite or virus in culture; assay type: cell-based, Mycobacterium tuberculosis; conditions: for MIC / MIC90: ≥90% reduction in luminescence, read-out: MIC90 LORA; for MIC90 LORA/MABA: ratio of LORA MIC90 to MABA MIC90
[3] = […], ≥99% reduction in luminescence, read-out: MBC99 Day 7 (Lux Assay) MBC
[4] = Mycobacterium tuberculosis, H37RV
[5] = day 7 of time-kill study, read-out: MBC99

SMILES	MBC [1, 3] [µM]	MIC90 [2, 4] [µM]	MBC99 Day 7 (Lux Assay) MBC Rel to RMP [1]	MIC90 LORA Rel to RMP [2]	MIC90 LORA/MABA [2]	further results
CO[C@H]1/C=C/O[C@@]2(C)Oc3c(C)c(O)c4c(=O)c(c5oc6cc(N7CCS(=O)(=O)CC7)cc(OCc7ccc(CN8CCOCC8)cc7)c6nc-5c4c3C2=O)NC(=O)/C(C)=C\C=C\[C@H](C)[C@H](O)[C@@H](C)[C@@H](O)[C@@H](C)[C@H](OC(C)=O)[C@@H]1C [Compound 17j, (7S,9E,11S,12R,13S,14R,15R,16R,17S,18S,19E,21Z)-30-(1,1-dioxothiomorpholin-4-yl)-2,15,17-trihydroxy-11-methoxy-3,7,12,14,16,18,22-heptamethyl-32-([4-(morpholin-4-ylmethyl)phenyl]methoxy)-6,23,37-trioxo-8,27,38-trioxa-24,34-diazahexacyclo-[23.11.1.1^4,7.0^5,36.0^26,35.0^28,33]octatriaconta-1,3,5(36)9,19,21,25,28,30,32,34-undecaen-13-yl acetate]	> 0.1	–	–	–	–	MIC [2, 4]: > 0.02 µM
CO[C@H]1/C=C/O[C@@]2(C)Oc3c(C)c(O)c4c(=O)c(c5oc6cc(N7CCC(C(=O)O)CC7)cc(OCc7ccc(CN8CCN(C)CC8)cc7)c6nc-5c4c3C2=O)NC(=O)/C(C)=C\C=C\[C@H](C)[C@H](O)[C@@H](C)[C@@H](O)[C@@H](C)[C@H](OC(C)=O)[C@@H]1C [Compound 17q, 1-[(7S,9E,11S,12R,13S,14R,15R,16R,17S,18S,19E,21Z)-13-(acetyloxy)-2,15,17-trihydroxy-11-methoxy-3,7,12,14,16,18,22-heptamethyl-32-({4-[(4-methylpiperazin-1-yl)methyl]phenyl}methoxy)-6,23,37-trioxo-8,27,38-trioxa-24,34-diazahexacyclo-[23.11.1.1^4,7.0^5,36.0^26,35.0^28,33]-octatriaconta-1,3,5(36)9,19,21,25,28,30,32,34-undecaen-30-yl]piperidine-4-carboxylic acid]	> 0.1	> 0.02	–	–	–	–
CO[C@H]1/C=C/O[C@@]2(C)Oc3c(C)c(O)c4c(=O)c(c5oc6cc(C)cc(N7CCN(CCn8ccnc8)CC7)c6nc-5c4c3C2=O)NC(=O)/C(C)=C\C=C\[C@H](C)[C@H](O)[C@@H](C)[C@@H](O)[C@@H](C)[C@H](OC(C)=O)[C@@H]1C [Compound 30e, (7S,9E,11S,12R,13S,14R,15R,16R,17S,18S,19E,21Z)-2,15,17-Trihydroxy-32-{4-[3-(1H-imidazol-1-yl)ethyl]piperazin-1-yl}-11-methoxy-3,7,12,14,16,18,22,30-octamethyl-6,23,37-trioxo-8,27,38-trioxa-24,34-diazahexacyclo[23.11.1.1^4,7.0^5,36.0^26,35.0^28,33]octatriaconta-1(36)2,4,9,19,21,25,28,30,32,34-undecaen-13-yl acetate]	0.49	0.18	1.06	0.87	2.1	–
CO[C@H]1/C=C/O[C@@]2(C)Oc3c(C)c(O)c4c(=O)c(c5oc6cccc(OCc7cccc(CN8CCN(C(=O)Cc9ccccc9)CC8)c7)c6nc-5c4c3C2=O)NC(=O)/C(C)=C\C=C\[C@H](C)[C@H](O)[C@@H](C)[C@@H](O)[C@@H](C)[C@H](OC(C)=O)[C@@H]1C [Compound 11g, (7S,9E,11S,12R,13S,14R,15R,16R,17S,18S,19E,21Z)-2,15,17-Trihydroxy-11-methoxy-3,7,12,14,16,18,22-heptamethyl-6,23,37-trioxo-32-[(3-{[4-(2-phenylacetyl)-piperazin-1-yl]methyl}phenyl)methoxy]-8,27,38-trioxa-24,34-diazahexacyclo[23.11.1.1^4,7.0^5,36.0^26,35.0^28,33]octatriaconta-1(36)2,4,9,19,21,25,28,30,32,34-undecaen-13-yl acetate]	0.044	0.131	0.06	1.1	12	–
CO[C@H]1/C=C/O[C@@]2(C)Oc3c(C)c(O)c4c(=O)c(c5oc6cccc(OCCCCN7CCN(C(=O)CN8CCOCC8)CC7)c6nc-5c4c3C2=O)NC(=O)/C(C)=C\C=C\[C@H](C)[C@H](O)[C@@H](C)[C@@H](O)[C@@H](C)[C@H](OC(C)=O)[C@@H]1C [Compound 5e, (7S,9E,11S,12R,13S,14R,15R,16R,17S,18S,19E,21Z)-2,15,17-Trihydroxy-11-methoxy-3,7,12,14,16,18,22-heptamethyl-32-(4-{4-[2-(morpholin-4-yl)acetyl]piperazin-1-yl}butoxy)-6,23,37-trioxo-8,27,38-trioxa-24,34-diazahexacyclo[23.11.1.1^4,7.0^5,36.0^26,35.0^28,33]octatriaconta-1(36)2,4,9,19,21,25,28(33)29,31,34-undecaen-13-yl acetate]	0.04	–	0.09	0.27	0.57	MIC [2, 4]: 0.047 µM
CO[C@H]1/C=C/O[C@@]2(C)Oc3c(C)c(O)c4c(=O)c(c5oc6cc(N7CCN(C(C)=O)CC7)cc(C)c6nc-5c4c3C2=O)NC(=O)/C(C)=C\C=C\[C@H](C)[C@H](O)[C@@H](C)[C@@H](O)[C@@H](C)[C@H](OC(C)=O)[C@@H]1C [Compound 26d, (7S,9E,11S,12R,13S,14R,15R,16R,17S,18S,19E,21Z)-30-(4-Acetylpiperazin-1-yl)-2,15,17-trihydroxy-11-methoxy-3,7,12,14,16,18,22,32-octamethyl-6,23,37-trioxo-8,27,38-trioxa-24,34-diazahexacyclo[23.11.1.1^4,7.0^5,36.0^26,35.0^28,33]octatriaconta-1(36)2,4,9,19,21,25,28,30,32,34-undecaen-13-yl acetate]	> 0.1	> 0.02	–	–	–	–
O=[N+]([O-])c1cn2c(n1)OC[C@@H](OCc1ccc(OC(F)(F)F)cc1)C2 [Pretomanid, pretomanid, reference compound]	–	–	–	–	–	MIC90 ([1]; day 7 of time-kill study): 0.47 µM (≈ 0.169 µg/mL); MBC [1, 5]: 0.597 µM (≈ 0.214 µg/mL)
COc1nc2ccc(Br)cc2cc1[C@@H](c1ccccc1)[C@@](O)(CCN(C)C)c1cccc2ccccc12 [Bedaquiline]	–	–	–	–	–	MIC90 ([1]; day 7 of time-kill study): 0.031 µM (≈ 0.0172 µg/mL); MBC [1, 5]: 0.124 µM (≈ 0.0689 µg/mL)
CO[C@H]1/C=C/O[C@@]2(C)Oc3c(C)c(O)c4c(=O)c(c5oc6cc(N7CCN(CC(C)C)CC7)cc(N7CCN(CC(C)C)CC7)c6nc-5c4c3C2=O)NC(=O)/C(C)=C\C=C\[C@H](C)[C@H](O)[C@@H](C)[C@@H](O)[C@@H](C)[C@H](OC(C)=O)[C@@H]1C [Compound 17u, 7S,9E,11S,12R,13S,14R,15R,16R,17S,18S,19E,21Z)-2,15,17-trihydroxy-11-methoxy-3,7,12,14,16,18,22-heptamethyl-30,32-bis[4-(2-methylpropyl)piperazin-1-yl]-6,23,37-trioxo-8,27,38-trioxa-24,34-diazahexacyclo[23.11.1.1^4,7.0^5,36.0^26,35.0^28,33]octatriaconta-1,3,5(36)9,19,21,25,28,30,32,34-undecaen-13-yl acetate]	0.025	–	0.05	–	–	–
NNC(=O)c1ccncc1 [Isoniazid, isoniazid, reference compound]	–	–	–	–	–	MIC90 ([1]; day 7 of time-kill study): 0.409 µM (≈ 0.0561 µg/mL); MBC [1, 5]: 3.59 µM (≈ 0.492 µg/mL)
CO[C@H]1/C=C/O[C@@]2(C)Oc3c(C)c(O)c4c(=O)c(c5oc6cccc(OCc7ccc(CN8CCN(C(=O)CN9CCOCC9)CC8)cc7)c6nc-5c4c3C2=O)NC(=O)/C(C)=C\C=C\[C@H](C)[C@H](O)[C@@H](C)[C@@H](O)[C@@H](C)[C@H](OC(C)=O)[C@@H]1C [Compound 16c, (7S,9E,11S,12R,13S,14R,15R,16R,17S,18S,19E,21Z)-2,15,17-Trihydroxy-11-methoxy-3,7,12,14,16,18,22-heptamethyl-32-{[4-({4-[2-(morpholin-4-yl)acetyl]piperazin-1-yl}methyl)phenyl]methoxy}-6,23,37-trioxo-8,27,38-trioxa-24,34-diazahexacyclo[23.11.1.1^4,7.0^5,36.0^26,35.0^28,33]octatriaconta-1(36)2,4,9,19,21,25,28,30,32,34-undecaen-13-yl acetate]	0.061	–	0.08	–	–	–
CO[C@H]1/C=C/O[C@@]2(C)Oc3c(C)c(O)c4c(=O)c(c5oc6cccc(OCCCCN7CCOCC7)c6nc-5c4c3C2=O)NC(=O)/C(C)=C\C=C\[C@H](C)[C@H](O)[C@@H](C)[C@@H](O)[C@@H](C)[C@H](OC(C)=O)[C@@H]1C [Compound 5b, (7S,9E,11S,12R,13S,14R,15R,16R,17S,18S,19E,21Z)-2,15,17-Trihydroxy-11-methoxy-3,7,12,14,16,18,22-heptamethyl-32-[4-(morpholin-4-yl)butoxy]-6,23,37-trioxo-8,27,38-trioxa-24,34-diazahexacyclo[23.11.1.1^4,7.0^5,36.0^26,35.0^28,33]octatriaconta-1(36)2,4,9,19,21,25,28(33)29,31,34-undecaen-13-yl acetate]	–	–	–	0.15	2.4	MIC [2, 4]: 0.05 µM
CO[C@H]1/C=C/O[C@@]2(C)Oc3c(C)c(O)c4c(=O)c(c5oc6cc(C=O)cc(N7CCN(CC(C)C)CC7)c6nc-5c4c3C2=O)NC(=O)/C(C)=C\C=C\[C@H](C)[C@H](O)[C@@H](C)[C@@H](O)[C@@H](C)[C@H](OC(C)=O)[C@@H]1C [Compound 30d, (7S,9E,11S,12R,13S,14R,15R,16R,17S,1S,19E,21Z)-30-Formyl-2,15,17-trihydroxy-11-methoxy-3,7,12,14,16,18,22-heptamethyl-32-[4-(2-methylpropyl)piperazin-1-yl]-6,23,37-trioxo-8,27,38-trioxa-24,34-diazahexacyclo[23.11.1.1^4,7.0^5,36.0^26,35.0^28,33]octatriaconta-1(36)2,4,9,19,21,25,28,30,32,34-undecaen-13-yl acetate]	–	–	–	0.07	–	MIC90 [2]: 0.017 µM
